Reference: PMC8231556, “Inhibiting Endothelial Cell Function in Normal and Tumor Angiogenesis Using BMP Type I Receptor Macrocyclic Kinase Inhibitors” (Cancers, 2021)

Assays:
[1] = system: BMP9-induced SMAD1/5 phosphorylation; test: Western blot of BMP9-induced SMAD1/5 phosphorylation in EA.hy926 cells; type: cell-based; conditions: Homo sapiens, EA.hy 926, BMP9 1 ng/mL, 1 h, read-out: IC50 on BMP9-induced pSMAD1/5 response
Experimental: EA.hy926 cells or HUVECs were seeded in 6-well plates and starved in a serum-free medium for 4 h after reaching 80% confluence. The compounds were added 30 min prior to stimulation with the corresponding ligands. EA.hy926 cells were incubated with BMP9 (1 ng/mL), BMP6 (50 ng/mL), TGF-β2 (1 ng/mL), or vehicle control for 1 h. For HUVECs, after 4 h starvation, the cells were pre-treated with or without the indicated compounds for 30 min and subsequently stimulated with VEGF (40 ng/mL) for 10 min. The cells were harvested and lysed in radioimmunoprecipitation assay (RIPA) lysis buffer containing 1× complete protease inhibitor cocktail (11836153001, Roche, Basel, Switzerland). The protein concentration was determined using the DC protein assay kit (5000111, Bio-Rad). After adding loading buffer, the samples were boiled and proteins separated by sodium dodecyl sulfate polyacrylamide gel electrophoresis (SDS-PAGE). Proteins in the gel were transferred to polyvinylidene difluoride (PVDF) membranes (IPVH00010, Merck Millipore, Burlington, MA, USA) and immunoblotted with 1000 times diluted primary antibodies: phospho-SMAD1/5 (9516 S, Cell Signaling Technology, Leiden, The Netherlands), phospho-SMAD2 (pSMAD2, home-made), SMAD1 (6944 S, Cell Signaling Technology), SMAD2 (3103 S, Cell Signaling Technology), phospho-extracellular signal-regulated kinase/mitogen-activated protein kinase (pERK/MAPK, 4370, Cell Signaling Technology), mitogen-activated protein kinase/ERK1/2 (ERK1/2/MAPK, 9102 S, Cell Signaling Techonol), VEGFR (2479, Cell Signaling), pVEGFR (2478, Cell Signaling Technology), α/β-Tubulin (2148, Cell Signaling Technology), glyceraldehyde 3-phosphate dehydrogenase (GAPDH, MAB374, Merck Millipore). Clarity™ enhanced chemiluminescence (ECL) reagent (1705060, Bio-Rad) was used to visualize secondary antibodies conjugated to horseradish peroxidase (HRP). GAPDH or Tubulin was used as protein loading controls. […] The protein bands were quantified using ImageJ (National Institutes of Health, Bethesda, MD, USA).

[2] = system: BMP9-induced BRE-Luc activity; test: BRE-luciferase transcriptional reporter assay, BMP9-stimulated EA.hy926-BRE-Luc cells; type: cell-based, human; conditions: for BMP9-induced BRE-Luc activity (fold): BMP9 1 ng/mL alone 5.0 fold
Excerpt: The BMP responsive element (BRE)-driven transcriptional luciferase reporter, which contains SMAD1/5-SMAD4 responsive elements of the ID1 gene promoter, was used to assess the activation of the BMP/SMAD signaling pathway. A lentiviral vector carrying this reporter construct (pRRL-BRE-Luc) was generated by digesting the MLP-BRE-Luc plasmid with KpnI and SalI and then inserted into the lentivirus vector pRRL-CMV digested with XhoI and KpnI. Lentiviral particles were made using HEK 293 T cells, and EA.hy926 cells were transduced to generate BRE-Luc stably expressing cells, named as EA.hy926-BRE-Luc.
EA.hy926-BRE-Luc cells were seeded at approximately 5 × 10^5 cells/well in a 24-well plate. Cells were serum-starved overnight by incubating with a serum-free medium. After starvation, the cells were pre-incubated with the compounds for 30 min and subsequently stimulated overnight with ligands (or vehicle control). Thereafter, the cells were lysed, and luciferase activity was measured with the firefly luciferase assay System kit (E1501, Promega Corporation, Madison, WI, USA) using a PerkinElmer luminometer. The firefly luciferase activity was normalized to protein content, which was determined using the DC protein assay kit (5000111, Bio-Rad, Hercules, CA, USA).

[3] = system: BMP6-induced SMAD1/5 phosphorylation; test: Western blot of BMP6-induced SMAD1/5 phosphorylation in EA.hy926 cells; type: cell-based, human; conditions: BMP6 50 ng/mL
Experimental: EA.hy926 cells or HUVECs were seeded in 6-well plates and starved in a serum-free medium for 4 h after reaching 80% confluence. The compounds were added 30 min prior to stimulation with the corresponding ligands. EA.hy926 cells were incubated with BMP9 (1 ng/mL), BMP6 (50 ng/mL), TGF-β2 (1 ng/mL), or vehicle control for 1 h. For HUVECs, after 4 h starvation, the cells were pre-treated with or without the indicated compounds for 30 min and subsequently stimulated with VEGF (40 ng/mL) for 10 min. The cells were harvested and lysed in radioimmunoprecipitation assay (RIPA) lysis buffer containing 1× complete protease inhibitor cocktail (11836153001, Roche, Basel, Switzerland). The protein concentration was determined using the DC protein assay kit (5000111, Bio-Rad). After adding loading buffer, the samples were boiled and proteins separated by sodium dodecyl sulfate polyacrylamide gel electrophoresis (SDS-PAGE). Proteins in the gel were transferred to polyvinylidene difluoride (PVDF) membranes (IPVH00010, Merck Millipore, Burlington, MA, USA) and immunoblotted with 1000 times diluted primary antibodies: phospho-SMAD1/5 (9516 S, Cell Signaling Technology, Leiden, The Netherlands), phospho-SMAD2 (pSMAD2, home-made), SMAD1 (6944 S, Cell Signaling Technology), SMAD2 (3103 S, Cell Signaling Technology), phospho-extracellular signal-regulated kinase/mitogen-activated protein kinase (pERK/MAPK, 4370, Cell Signaling Technology), mitogen-activated protein kinase/ERK1/2 (ERK1/2/MAPK, 9102 S, Cell Signaling Techonol), VEGFR (2479, Cell Signaling), pVEGFR (2478, Cell Signaling Technology), α/β-Tubulin (2148, Cell Signaling Technology), glyceraldehyde 3-phosphate dehydrogenase (GAPDH, MAB374, Merck Millipore). Clarity™ enhanced chemiluminescence (ECL) reagent (1705060, Bio-Rad) was used to visualize secondary antibodies conjugated to horseradish peroxidase (HRP). GAPDH or Tubulin was used as protein loading controls. All the experiments were repeated at least three times, and representative experiments are shown. The protein bands were quantified using ImageJ (National Institutes of Health, Bethesda, MD, USA).

[4] = system: MDA-MB-231 breast cancer cell-induced angiogenesis; test: Tumor angiogenesis in zebrafish (MDA-MB-231 xenograft); type: in vivo; conditions: 0.5 µM, 3 days, MDA-MB-231 in perivitelline space
Experimental: Two days post fertilization (dpf), four hundred mCherry-labeled human breast cancer MDA-MB-231 cells were injected into the perivitelline space of Tg (fli:EGFP) zebrafish embryos as previously described. The properly injected zebrafishes were randomly divided into five groups, and each group contained at least 30 embryos. […] The egg water was refreshed daily, and the abnormal embryos were removed. After 3 days, the embryos were fixed in 4% PFA for 2 h at room temperature and stored at 4 °C in PBS. The tumor cell-induced angiogenesis in the perivitelline space was imaged with an Andor Dragonfly 500 spinning disk confocal using 488 nm and 561 nm lasers. At least ten embryos per group were randomly selected and scanned. The experiments were repeated twice with similar results. Tumor angiogenesis was quantified using ImageJ, and the relative vasculature density was calculated according to the following formula: Relative vasculature density (%) = 100% × (Vessel intensity within the perivitelline space)/(tumor cells intensity within the perivitelline space).

ALK4 = ALK4 (Homo sapiens, UniProt P36896); test: radiometric protein kinase assay, affinity (Kd); type: binding
ALK4, sequence (P36896 24-505): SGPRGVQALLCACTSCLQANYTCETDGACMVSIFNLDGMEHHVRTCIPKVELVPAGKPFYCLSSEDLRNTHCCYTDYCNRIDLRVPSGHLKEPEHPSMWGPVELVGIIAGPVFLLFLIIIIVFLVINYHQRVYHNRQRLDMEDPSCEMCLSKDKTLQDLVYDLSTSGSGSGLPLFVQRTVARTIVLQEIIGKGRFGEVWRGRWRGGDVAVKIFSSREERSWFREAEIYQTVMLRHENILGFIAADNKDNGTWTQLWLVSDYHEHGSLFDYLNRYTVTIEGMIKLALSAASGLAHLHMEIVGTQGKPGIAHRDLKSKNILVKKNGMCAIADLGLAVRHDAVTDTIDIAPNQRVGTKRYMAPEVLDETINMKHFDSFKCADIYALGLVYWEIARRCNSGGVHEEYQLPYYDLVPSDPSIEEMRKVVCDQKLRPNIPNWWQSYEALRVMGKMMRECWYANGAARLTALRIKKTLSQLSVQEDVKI
Experimental: (§1) The binding interaction profile of the compounds for ALK1–6, ACVR2A, ACVR2B, and TGFβR2 was determined by using radiometric protein kinase assay. For each compound, ten different concentrations (from 3 × 10^−6 M to 9 × 10^−11 M) were used in the protein kinase reaction. The inhibitor binding constants (Kd values) were calculated based on the 10 corresponding residual activities for each compound using Prism 5.04 (Graphpad, San Diego, CA, USA) according to the following formula:Kd = ([K][I]/[C]) where [K] = molar concentration of non-inhibitor bound kinase at equilibrium, [I] = molar concentration of the free inhibitor at equilibrium, [C] = molar concentration of kinase-inhibitor complex at equilibrium.

ACVR2B = ACVR2B (Homo sapiens, UniProt Q13705); test: radiometric protein kinase assay, affinity (Kd); type: binding
ACVR2B, sequence (Q13705 19-512): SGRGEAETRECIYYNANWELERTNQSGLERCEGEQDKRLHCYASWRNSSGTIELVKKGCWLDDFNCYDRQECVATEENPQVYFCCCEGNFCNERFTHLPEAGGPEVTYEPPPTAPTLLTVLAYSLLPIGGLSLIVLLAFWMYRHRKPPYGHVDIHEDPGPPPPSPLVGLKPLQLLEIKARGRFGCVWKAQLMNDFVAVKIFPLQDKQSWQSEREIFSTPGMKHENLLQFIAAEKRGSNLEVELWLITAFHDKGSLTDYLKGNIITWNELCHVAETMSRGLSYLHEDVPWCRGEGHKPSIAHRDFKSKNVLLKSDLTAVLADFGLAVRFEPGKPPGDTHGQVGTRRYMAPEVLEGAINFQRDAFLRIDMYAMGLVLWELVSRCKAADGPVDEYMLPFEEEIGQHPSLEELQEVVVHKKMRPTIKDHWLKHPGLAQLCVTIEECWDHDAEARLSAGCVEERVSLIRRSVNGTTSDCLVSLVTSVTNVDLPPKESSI
Experimental: as §1

[5] = system: Tg (fli:EGFP) zebrafish embryos; test: Zebrafish embryo toxicity assay; type: in vivo; conditions: 0.5 µM in egg water, three days
Experimental: Breeding pairs of the transgenic Casper zebrafish line Tg (fli:EGFP) were put together in a tank, and the next morning, all embryos were collected as previously described. Fertilized eggs that were at the same development stage (around 2.5 h post-fertilization (hpf)) were selected under the microscope. The eggs were randomly divided into different groups, and each group contained about 20 embryos. All the embryos were raised in egg water (60 μg/mL sea salt) and placed in a 28 °C incubator. The compounds dissolved in DMSO were diluted in egg water to a final concentration of 0.5 µM. Equal amounts of DMSO were added to the vehicle control group. Egg water was changed every day, and abnormal embryos were removed. Embryos were recorded until day 3. All experiments were performed in technical triplicates and repeated three times, and representative results are shown. The survival rate was calculated according to the following formula: Survival rate (%) = 100% × (Number of zebrafish that survived at the end)/(Number of zebrafish present at the beginning).

Structure (SMILES): c1ccc2c(-c3cnn4cc(-c5ccc(N6CCNCC6)cc5)cnc34)ccnc2c1 [LDN-193189, reference compound]
- IC50 [1]: 110 nM
- effect on BMP9-induced BRE activity ([2]; 0.5 μM compound): significantly inhibited
- effect on BMP9-induced BRE activity ([2]; 1 μM compound): nearly decreased to basal levels
- effect on BMP6-induced SMAD1/5 phosphorylation ([3]; 0.1 µM compound): efficiently inhibited

Structure (SMILES): CNC(=O)c1ccccc1Sc1ccc2c(/C=C/c3ccccn3)n[nH]c2c1 [Axitinib, reference compound]
- effect on cancer cell-induced angiogenesis (relative vasculature density) [4]: markedly inhibited

Structure (SMILES): CN1CCc2cccc(c2)Nc2nccc(n2)N2CCCc3cc(ccc32)C1 [OD16]
- IC50 [1]: 80 nM
- Kd (ALK4): 270 nM
- Kd (ACVR2B): 220 nM
- BMP9-induced BRE-Luc activity (fold) ([2]; 0.1 μM compound): 2.1 fold
- effect on BMP9-induced BRE activity ([2]; 1 μM compound): nearly completely inhibited
- effect on cancer cell-induced angiogenesis (relative vasculature density) [4]: significantly inhibited
- survival rate of the zebrafish [5]: 80–93%
- effect on BMP6-induced SMAD1/5 phosphorylation ([3]; 0.1 µM compound): efficiently inhibited

Structure (SMILES): CN1CCC(=O)NCCNc2ccn3ncc(c3n2)-c2cccc(c2)C1 [OD29]
- IC50 [1]: 430 nM
- Kd (ALK4): 652 nM
- Kd (ACVR2B): 558 nM
- BMP9-induced BRE-Luc activity (fold) ([2]; 0.5 μM compound): 3.1 fold
- BMP9-induced BRE-Luc activity (fold) ([2]; 1 μM compound): 0.9 fold
- effect on cancer cell-induced angiogenesis (relative vasculature density) [4]: significantly inhibited
- survival rate of the zebrafish [5]: 80–93%
- effect on BMP6-induced SMAD1/5 phosphorylation ([3]; 0.1 µM compound): failed to antagonize
- effect on BMP6-induced SMAD1/5 phosphorylation ([3]; 1 µM compound): very weak inhibitory effect
